In US6806286B2, “Pyrrolecarboxamides and pyrrolethioamides as fungicides” (Syngenta Crop Protection, Inc., priority 2000, dated 2004):

How the values were obtained:
Botryis cinerea = experiment: Action against Botryis cinerea/apple (Botrytis on apple fruits); type: in vivo, B. cinerea; conditions: apple fruit cv. Golden Delicious, 30 μl droplets 0.002% active ingredient in drilled holes, inoculated two hours after application, assessed after 7 days
Description: Action Against Botryis cinerea/apple (Botrytis on Apple Fruits)
In an apple fruit cv. […] Two hours after application 50 μl of a spore suspension of B. cinerea (4×10^5 conidia/ml) are pipetted on the application sites. After an incubation period of 7 days at 22° C. in a growth chamber the disease incidence is assessed.

Septoria nodorum = experiment: Action against Septoria nodorum/wheat (Septoria leaf spot on wheat); type: in vivo; conditions: wheat plants cv. Arina, spray 0.02% active ingredient, inoculated one day after application, assessed 11 days after inoculation
Description: Action Against Septoria nodorum/wheat (Septoria Leaf Spot on Wheat)
(§1) 1 week old wheat plants cv. […] One day after application wheat plants are inoculated by spraying a spore suspension (5×10^5 conidia/ml) on the test plants. After an incubation period of 1 day at 20° C. and 95% r. h. plants are kept for 10 days at 20° C. and 60% r.h. in a greenhouse. The disease incidence is assessed 11 days after inoculation.

Etysiphe graminis = experiment: Action against Etysiphe graminis/barley (powdery mildew on barley); type: in vivo; conditions: barley plants cv. Express, spray 0.02% active ingredient, inoculated one day after application, assessed after 6 days incubation
Description: Action Against Etysiphe graminis/barley (Powdery Mildew on Barley)
1 week old barley plants cv. […] One day after application barley plants are inoculated by shaking powdery mildew infected plants above the test plants. After an incubation period of 6 days at 20° C./18° C. (day/night) and 60% r. h. in a greenhouse the disease incidence is assessed.

Podosphaera leucotricha = experiment: Action against Podosphaera leucotricha/apple (powdery mildew on apple); type: in vivo; conditions: apple seedlings cv. McIntosh, spray 0.002% active ingredient, inoculated one day after application, assessed after 12 days incubation
Description: Action Against Podosphaera leucotricha/apple (Powdery Mildew on Apple)
5 week old apple seedlings cv. […] One day after application apple plants are inoculated by shaking plants infected with apple powdery mildew above the test plants. After an incubation period of 12 days at 22° C. and 60% r. h. under a light regime of 14/10 h (light/dark) the disease incidence is assessed.

Boftis cinerea = experiment: Action against Boftis cinerea/grape (Botrytis on grapes); type: in vivo; conditions: grape seedlings cv. Gutedel, spray 0.002% active ingredient, inoculated two days after application, assessed after 4 days incubation
Description: Action Against Boftis cinerea/grape (Botrytis on Grapes)
5 week old grape seedlings cv. […] Two days after application grape plants are inoculated by spraying a spore suspension (1×10^6 conidia/ml) on the test plants. After an incubation period of 4 days at 21° C. and 95% r. h. in a greenhouse the disease incidence is assessed.

Botryts cinerea = experiment: Action against Botryts cinerea/tomato (Botrytis on tomatoes); type: in vivo; conditions: tomato plants cv. Roter Gnom, spray 0.002% active ingredient, inoculated two days after application, assessed after 4 days incubation
Description: Action Against Botryts cinerea/tomato (Botrytis on Tomatoes)
4 week old tomato plants cv. […] Two days after application tomato plants are inoculated by spraying a spore suspension (1×10^5 conidia/ml) on the test plants. After an incubation period of 4 days at 20° C. and 95% r. h. in a growth chamber the disease incidence is assessed.

Venturia Inaequalis = experiment: Action against Venturia inaequalis/apple (scab on apple); type: in vivo; conditions: apple seedlings cv. McIntosh, spray 0.02% active ingredient, inoculated one day after application, assessed after 4+4+4 days incubation
Description: Action Against Venturia Inaequalis/apple (Scab on Apple)
4 week old apple seedlings cv. […] One day after application apple plants are inoculated by spraying a spore suspension (4×10^5 conidia/ml) on the test plants. After an incubation period of 4 days at 21° C. and 95% r. h. the plants are placed for 4 days at 21° C. and 60% r. h. in a greenhouse. After another 4 day incubation period at 21° C. and 95% r. h. the disease incidence is assessed.

Puenophora teres = experiment: Action against Puenophora teres/barley (net blotch on barley); type: in vivo; conditions: barley plants cv. Express, spray 0.002% active ingredient, inoculated two days after application, assessed 4 days after inoculation
Description: Action Against Puenophora teres/barley (Net Blotch on Barley)
as §1, with “barley” for “wheat”, “Two days” for “One day”, “(3×10^4” for “(5×10^5”, “2 days” for “1 day”, “2” for “10”, “4” for “11”

| SMILES | efficacy (disease incidence) (Botryis cinerea) | efficacy (disease incidence) (Septoria nodorum) | efficacy (disease incidence) (Etysiphe graminis) | efficacy (disease incidence) (Podosphaera leucotricha) | efficacy (disease incidence) (Boftis cinerea) | efficacy (disease incidence) (Botryts cinerea) | efficacy (disease incidence) (Venturia Inaequalis) | melting point [°C] | efficacy (disease incidence) (Puenophora teres) |
| --- | --- | --- | --- | --- | --- | --- | --- | --- | --- |
| Cc1cn(C)cc1C(=O)Nc1ccccc1-c1ccc(F)cc1 [Compound 1.25] | strong efficacy | strong efficacy | strong efficacy | strong efficacy | strong efficacy | strong efficacy | strong efficacy | 148 to 149 | strong efficacy |
| CCc1cn(CC)cc1C(=O)Nc1ccccc1-c1ccc(F)cc1 [Compound 1.266] | strong efficacy | strong efficacy | strong efficacy | strong efficacy | strong efficacy | strong efficacy | strong efficacy |  | strong efficacy |
| CC(C)c1cn(C)cc1C(=O)Nc1ccccc1-c1ccc(Cl)cc1 [Compound 1.268] | strong efficacy | strong efficacy | strong efficacy | strong efficacy | strong efficacy | strong efficacy | strong efficacy |  | strong efficacy |
| CC(C)c1cn(C)cc1C(=O)Nc1ccccc1-c1ccc(F)cc1 [Compound 1.269] | strong efficacy | strong efficacy | strong efficacy | strong efficacy | strong efficacy | strong efficacy | strong efficacy |  | strong efficacy |
| CCn1cc(C(=O)Nc2ccccc2-c2ccc(Cl)cc2)c(C(C)C)c1 [Compound 1.271] | strong efficacy | strong efficacy | strong efficacy | strong efficacy | strong efficacy | strong efficacy | strong efficacy |  | strong efficacy |
| CCn1cc(C(=O)Nc2ccccc2-c2ccc(F)cc2)c(C(C)C)c1 [Compound 1.272] | strong efficacy | strong efficacy | strong efficacy | strong efficacy | strong efficacy | strong efficacy | strong efficacy |  | strong efficacy |
| Cc1cn(C)cc1C(=O)Nc1ccsc1-c1ccc(Cl)cc1 [Compound 2.23] | strong efficacy | strong efficacy | strong efficacy | strong efficacy | strong efficacy | strong efficacy | strong efficacy |  | strong efficacy |
| Cn1cc(C(=O)Nc2ccsc2-c2ccc(Cl)cc2)c(C(F)(F)C(F)(F)F)c1 [Compound 2.190] | strong efficacy | strong efficacy | strong efficacy | strong efficacy | strong efficacy | strong efficacy | strong efficacy |  | strong efficacy |
| Cn1cc(C(=O)Nc2ccsc2-c2ccc(F)cc2)c(C(F)(F)C(F)(F)F)c1 [Compound 2.192] | strong efficacy | strong efficacy | strong efficacy | strong efficacy | strong efficacy | strong efficacy | strong efficacy |  | strong efficacy |
| Cc1cn(C)cc1C(=O)Nc1snnc1-c1ccc(F)cc1 [Compound 4.12] | strong efficacy | strong efficacy | strong efficacy | strong efficacy | strong efficacy | strong efficacy | strong efficacy |  | strong efficacy |
| Cc1cn(C)cc1C(=O)Nc1cnccc1-c1ccc(Cl)cc1 [Compound 6.10] | strong efficacy | strong efficacy | strong efficacy | strong efficacy | strong efficacy | strong efficacy | strong efficacy |  | strong efficacy |
| Cc1cn(C)cc1C(=O)Nc1cnccc1-c1ccc(F)cc1 [Compound 6.12] | strong efficacy | strong efficacy | strong efficacy | strong efficacy | strong efficacy | strong efficacy | strong efficacy |  | strong efficacy |
| Cn1cc(C(=O)Nc2cnccc2-c2ccc(Cl)cc2)c(C2CC2)c1 [Compound 6.49] | strong efficacy | strong efficacy | strong efficacy | strong efficacy | strong efficacy | strong efficacy | strong efficacy |  | strong efficacy |
| Cn1cc(C(=O)Nc2cnccc2-c2ccc(F)cc2)c(C2CC2)c1 [Compound 6.51] | strong efficacy | strong efficacy | strong efficacy | strong efficacy | strong efficacy | strong efficacy | strong efficacy |  | strong efficacy |
